Numbers after ± are expanded uncertainties.
Test: xn = mol fraction of the nth substance listed
Conditions: 100 kPa, Liquid; for viscosity: Falling or rolling sphere viscometry; for mass density: Vibrating tube method

## CCCCCCCCCCC [undecane] + CCCCO
283.15 K, x1 = 0.1007
  viscosity: 3.124 ± 0.04 mPa·s
  mass density: 801.8 ± 1.6 kg/m3
283.15 K, x1 = 0.2004
  viscosity: 2.611 ± 0.033 mPa·s
  mass density: 790.28 ± 1.6 kg/m3
283.15 K, x1 = 0.299
  viscosity: 2.24 ± 0.029 mPa·s
  mass density: 781.12 ± 1.6 kg/m3
283.15 K, x1 = 0.3981
  viscosity: 1.939 ± 0.025 mPa·s
  mass density: 773.6 ± 1.6 kg/m3
283.15 K, x1 = 0.5006
  viscosity: 1.722 ± 0.022 mPa·s
  mass density: 767.02 ± 1.5 kg/m3
283.15 K, x1 = 0.5964
  viscosity: 1.582 ± 0.02 mPa·s
  mass density: 761.98 ± 1.5 kg/m3
283.15 K, x1 = 0.6982
  viscosity: 1.471 ± 0.019 mPa·s
  mass density: 757.32 ± 1.5 kg/m3
283.15 K, x1 = 0.7979
  viscosity: 1.416 ± 0.019 mPa·s
  mass density: 753.51 ± 1.5 kg/m3
283.15 K, x1 = 0.9
  viscosity: 1.385 ± 0.018 mPa·s
  mass density: 750.22 ± 1.5 kg/m3
283.15 K, x1 = 1
  viscosity: 1.371 ± 0.018 mPa·s
  mass density: 747.78 ± 1.5 kg/m3
288.15 K, x1 = 0.1007
  viscosity: 2.731 ± 0.035 mPa·s
  mass density: 798.03 ± 1.6 kg/m3
288.15 K, x1 = 0.2004
  viscosity: 2.294 ± 0.029 mPa·s
  mass density: 786.48 ± 1.6 kg/m3
288.15 K, x1 = 0.299
  viscosity: 1.978 ± 0.025 mPa·s
  mass density: 777.31 ± 1.6 kg/m3
288.15 K, x1 = 0.3981
  viscosity: 1.723 ± 0.022 mPa·s
  mass density: 769.79 ± 1.6 kg/m3
288.15 K, x1 = 0.5006
  viscosity: 1.541 ± 0.02 mPa·s
  mass density: 763.23 ± 1.5 kg/m3
288.15 K, x1 = 0.5964
  viscosity: 1.425 ± 0.018 mPa·s
  mass density: 758.18 ± 1.5 kg/m3
288.15 K, x1 = 0.6982
  viscosity: 1.329 ± 0.017 mPa·s
  mass density: 753.56 ± 1.5 kg/m3
288.15 K, x1 = 0.7979
  viscosity: 1.287 ± 0.017 mPa·s
  mass density: 749.76 ± 1.5 kg/m3
288.15 K, x1 = 0.9
  viscosity: 1.26 ± 0.017 mPa·s
  mass density: 746.49 ± 1.5 kg/m3
288.15 K, x1 = 1
  viscosity: 1.249 ± 0.017 mPa·s
  mass density: 744.06 ± 1.5 kg/m3
293.15 K, x1 = 0.1007
  viscosity: 2.398 ± 0.03 mPa·s
  mass density: 794.24 ± 1.6 kg/m3
293.15 K, x1 = 0.2004
  viscosity: 2.025 ± 0.026 mPa·s
  mass density: 782.67 ± 1.6 kg/m3
293.15 K, x1 = 0.299
  viscosity: 1.755 ± 0.022 mPa·s
  mass density: 773.49 ± 1.6 kg/m3
293.15 K, x1 = 0.3981
  viscosity: 1.54 ± 0.02 mPa·s
  mass density: 765.96 ± 1.5 kg/m3
293.15 K, x1 = 0.5006
  viscosity: 1.387 ± 0.018 mPa·s
  mass density: 759.41 ± 1.5 kg/m3
293.15 K, x1 = 0.5964
  viscosity: 1.29 ± 0.017 mPa·s
  mass density: 754.38 ± 1.5 kg/m3
293.15 K, x1 = 0.6982
  viscosity: 1.212 ± 0.016 mPa·s
  mass density: 749.77 ± 1.5 kg/m3
293.15 K, x1 = 0.7979
  viscosity: 1.176 ± 0.015 mPa·s
  mass density: 746 ± 1.5 kg/m3
293.15 K, x1 = 0.9
  viscosity: 1.152 ± 0.015 mPa·s
  mass density: 742.75 ± 1.5 kg/m3
293.15 K, x1 = 1
  viscosity: 1.145 ± 0.015 mPa·s
  mass density: 740.35 ± 1.5 kg/m3
298.15 K, x1 = 0.1007
  viscosity: 2.115 ± 0.027 mPa·s
  mass density: 790.42 ± 1.6 kg/m3
298.15 K, x1 = 0.2004
  viscosity: 1.795 ± 0.023 mPa·s
  mass density: 778.83 ± 1.6 kg/m3
298.15 K, x1 = 0.299
  viscosity: 1.564 ± 0.02 mPa·s
  mass density: 769.63 ± 1.6 kg/m3
298.15 K, x1 = 0.3981
  viscosity: 1.383 ± 0.018 mPa·s
  mass density: 762.11 ± 1.5 kg/m3
298.15 K, x1 = 0.5006
  viscosity: 1.254 ± 0.016 mPa·s
  mass density: 755.57 ± 1.5 kg/m3
298.15 K, x1 = 0.5964
  viscosity: 1.173 ± 0.015 mPa·s
  mass density: 750.55 ± 1.5 kg/m3
298.15 K, x1 = 0.6982
  viscosity: 1.108 ± 0.014 mPa·s
  mass density: 745.97 ± 1.5 kg/m3
298.15 K, x1 = 0.7979
  viscosity: 1.077 ± 0.014 mPa·s
  mass density: 742.22 ± 1.5 kg/m3
298.15 K, x1 = 0.9
  viscosity: 1.058 ± 0.014 mPa·s
  mass density: 739 ± 1.5 kg/m3
298.15 K, x1 = 1
  viscosity: 1.062 ± 0.014 mPa·s
  mass density: 736.64 ± 1.5 kg/m3
303.15 K, x1 = 0.1007
  viscosity: 1.871 ± 0.024 mPa·s
  mass density: 786.57 ± 1.6 kg/m3
303.15 K, x1 = 0.2004
  viscosity: 1.595 ± 0.02 mPa·s
  mass density: 774.95 ± 1.6 kg/m3
303.15 K, x1 = 0.299
  viscosity: 1.392 ± 0.018 mPa·s
  mass density: 765.75 ± 1.5 kg/m3
303.15 K, x1 = 0.3981
  viscosity: 1.248 ± 0.016 mPa·s
  mass density: 758.22 ± 1.5 kg/m3
303.15 K, x1 = 0.5006
  viscosity: 1.139 ± 0.015 mPa·s
  mass density: 751.7 ± 1.5 kg/m3
303.15 K, x1 = 0.5964
  viscosity: 1.071 ± 0.014 mPa·s
  mass density: 746.69 ± 1.5 kg/m3
303.15 K, x1 = 0.6982
  viscosity: 1.016 ± 0.013 mPa·s
  mass density: 742.14 ± 1.5 kg/m3
303.15 K, x1 = 0.7979
  viscosity: 0.991 ± 0.013 mPa·s
  mass density: 738.42 ± 1.5 kg/m3
303.15 K, x1 = 0.9
  viscosity: 0.975 ± 0.013 mPa·s
  mass density: 735.23 ± 1.5 kg/m3
303.15 K, x1 = 1
  viscosity: 0.982 ± 0.013 mPa·s
  mass density: 732.93 ± 1.5 kg/m3
308.15 K, x1 = 0.1007
  viscosity: 1.663 ± 0.021 mPa·s
  mass density: 782.69 ± 1.6 kg/m3
308.15 K, x1 = 0.2004
  viscosity: 1.426 ± 0.018 mPa·s
  mass density: 771.05 ± 1.6 kg/m3
308.15 K, x1 = 0.299
  viscosity: 1.253 ± 0.016 mPa·s
  mass density: 761.84 ± 1.5 kg/m3
308.15 K, x1 = 0.3981
  viscosity: 1.13 ± 0.014 mPa·s
  mass density: 754.31 ± 1.5 kg/m3
308.15 K, x1 = 0.5006
  viscosity: 1.038 ± 0.013 mPa·s
  mass density: 747.8 ± 1.5 kg/m3
308.15 K, x1 = 0.5964
  viscosity: 0.979 ± 0.013 mPa·s
  mass density: 742.82 ± 1.5 kg/m3
308.15 K, x1 = 0.6982
  viscosity: 0.936 ± 0.012 mPa·s
  mass density: 738.3 ± 1.5 kg/m3
308.15 K, x1 = 0.7979
  viscosity: 0.915 ± 0.012 mPa·s
  mass density: 734.6 ± 1.5 kg/m3
308.15 K, x1 = 0.9
  viscosity: 0.902 ± 0.012 mPa·s
  mass density: 731.45 ± 1.5 kg/m3
308.15 K, x1 = 1
  viscosity: 0.91 ± 0.012 mPa·s
  mass density: 729.23 ± 1.5 kg/m3
313.15 K, x1 = 0.1007
  viscosity: 1.483 ± 0.019 mPa·s
  mass density: 778.77 ± 1.6 kg/m3
313.15 K, x1 = 0.2004
  viscosity: 1.279 ± 0.016 mPa·s
  mass density: 767.1 ± 1.5 kg/m3
313.15 K, x1 = 0.299
  viscosity: 1.131 ± 0.014 mPa·s
  mass density: 757.88 ± 1.5 kg/m3
313.15 K, x1 = 0.3981
  viscosity: 1.028 ± 0.013 mPa·s
  mass density: 750.36 ± 1.5 kg/m3
313.15 K, x1 = 0.5006
  viscosity: 0.95 ± 0.012 mPa·s
  mass density: 743.87 ± 1.5 kg/m3
313.15 K, x1 = 0.5964
  viscosity: 0.901 ± 0.012 mPa·s
  mass density: 738.91 ± 1.5 kg/m3
313.15 K, x1 = 0.6982
  viscosity: 0.864 ± 0.011 mPa·s
  mass density: 734.42 ± 1.5 kg/m3
313.15 K, x1 = 0.7979
  viscosity: 0.847 ± 0.011 mPa·s
  mass density: 730.76 ± 1.5 kg/m3
313.15 K, x1 = 0.9
  viscosity: 0.837 ± 0.011 mPa·s
  mass density: 727.65 ± 1.5 kg/m3
313.15 K, x1 = 1
  viscosity: 0.847 ± 0.011 mPa·s
  mass density: 725.53 ± 1.5 kg/m3
318.15 K, x1 = 0.1007
  viscosity: 1.326 ± 0.017 mPa·s
  mass density: 774.8 ± 1.6 kg/m3
318.15 K, x1 = 0.2004
  viscosity: 1.152 ± 0.015 mPa·s
  mass density: 763.11 ± 1.5 kg/m3
318.15 K, x1 = 0.299
  viscosity: 1.026 ± 0.013 mPa·s
  mass density: 753.88 ± 1.5 kg/m3
318.15 K, x1 = 0.3981
  viscosity: 0.938 ± 0.012 mPa·s
  mass density: 746.37 ± 1.5 kg/m3
318.15 K, x1 = 0.5006
  viscosity: 0.882 ± 0.011 mPa·s
  mass density: 739.91 ± 1.5 kg/m3
318.15 K, x1 = 0.5964
  viscosity: 0.832 ± 0.011 mPa·s
  mass density: 734.97 ± 1.5 kg/m3
318.15 K, x1 = 0.6982
  viscosity: 0.801 ± 0.01 mPa·s
  mass density: 730.51 ± 1.5 kg/m3
318.15 K, x1 = 0.7979
  viscosity: 0.787 ± 0.01 mPa·s
  mass density: 726.89 ± 1.5 kg/m3
318.15 K, x1 = 0.9
  viscosity: 0.779 ± 0.01 mPa·s
  mass density: 723.83 ± 1.5 kg/m3
318.15 K, x1 = 1
  viscosity: 0.79 ± 0.011 mPa·s
  mass density: 721.82 ± 1.5 kg/m3
323.15 K, x1 = 0.1007
  viscosity: 1.192 ± 0.015 mPa·s
323.15 K, x1 = 0.2004
  viscosity: 1.042 ± 0.013 mPa·s
323.15 K, x1 = 0.299
  viscosity: 0.934 ± 0.012 mPa·s
323.15 K, x1 = 0.3981
  viscosity: 0.858 ± 0.011 mPa·s
323.15 K, x1 = 0.5006
  viscosity: 0.804 ± 0.01 mPa·s
323.15 K, x1 = 0.5964
  viscosity: 0.771 ± 0.01 mPa·s
323.15 K, x1 = 0.6982
  viscosity: 0.749 ± 0.01 mPa·s
323.15 K, x1 = 0.7979
  viscosity: 0.733 ± 0.01 mPa·s
323.15 K, x1 = 0.9
  viscosity: 0.727 ± 0.01 mPa·s
323.15 K, x1 = 1
  viscosity: 0.74 ± 0.01 mPa·s

— the NIST ThermoML archive (doi:10.1021/acs.jced.6b00121)
